Assays:
[1] = test system: coronavirus USA_WA1/2020 SARS CoV-2; assay: SARS CoV-2 CPE assay for antiviral activity (Vero E6 host cells, Cell Titer-Glo); assay type: cell-based; details: Vero C1008, 10-point dose response, high concentration 15 μM, 72 hours, read-out: IC50 for inhibition of SARS CoV-2 mediated cell killing
[2] = in vitro; details: human
[3] = test system: SARS-CoV-2; assay: microbe, parasite or virus in culture; assay type: cell-based; details: Severe acute respiratory syndrome coronavirus 2, A549, 48 h; read-out: IC50 for inhibition of SARS CoV-2 mediated cell killing
[4] = in vitro; details: African green monkey

SMILES	IC50 [1] [µM]	CC50 [2] [µM]	IC50 [3] [µM]	CC50 [4] [µM]
C[C@@H]1COCCN1c1cc(N2CCN(S(=O)(=O)N3CCCC3)CC2C(F)(F)F)[nH]c(=O)c1 (stereo partly shown) [Compound 1]	0.9	24	0.16	29
C[C@@H]1COCCN1c1cc(N2CCN(S(=O)(=O)c3cncc(F)c3)CC2C(F)(F)F)[nH]c(=O)c1 (stereo partly shown) [Compound 2]	0.409	> 10	0.12	> 10
C[C@@H]1COCCN1c1cc(N2CCN(S(=O)(=O)Cc3ccc(F)cc3)CC2C(F)(F)F)[nH]c(=O)c1 (stereo partly shown) [Compound 3]	0.224	5160	0.039	> 10
C[C@@H]1COCCN1c1cc(N2CCN(S(=O)(=O)N(C)C)CC2C(F)(F)F)[nH]c(=O)c1 (stereo partly shown) [Compound 4]	1.12	> 10	0.369	> 10

— US20220184093A1, “ANTI-VIRAL ACTIVITY OF VPS34 INHIBITORS” (priority 2020, published 2022)
